Laboratory results: ChEMBL document CHEMBL4000195, “Design and synthesis of novel 7-aminosubstituted pyrido[2,3-b]pyrazines exhibiting anti-breast cancer activity” (Eur J Med Chem, 2017)
Activity calls are given as the source filed them. The rule behind the calls is not given here.

Legend:
[1] = test system: MCF7; test: Cytotoxicity against human MCF7 cells at 5 uM by MTT assay; format: functional
[2] = test system: MCF7; test: Cytotoxicity against human MCF7 cells at 10 uM by MTT assay; format: functional
[3] = test system: MDA-MB-231; test: Cytotoxicity against human MDA-MB-231 cells at 5 uM by MTT assay; format: functional
[4] = test system: HCC1954; test: Cytotoxicity against human HCC1954 cells at 5 uM by MTT assay; format: functional
[5] = test system: T47D; test: Cytotoxicity against human T47D cells by MTT assay; format: functional, cell-based
[6] = target: Dual specificity protein kinase CLK1 (Mus musculus) (UniProt P22518); test: Inhibition of mouse CLK1
Dual specificity protein kinase CLK1 (Mus musculus), sequence (P22518 whole entry, looked up): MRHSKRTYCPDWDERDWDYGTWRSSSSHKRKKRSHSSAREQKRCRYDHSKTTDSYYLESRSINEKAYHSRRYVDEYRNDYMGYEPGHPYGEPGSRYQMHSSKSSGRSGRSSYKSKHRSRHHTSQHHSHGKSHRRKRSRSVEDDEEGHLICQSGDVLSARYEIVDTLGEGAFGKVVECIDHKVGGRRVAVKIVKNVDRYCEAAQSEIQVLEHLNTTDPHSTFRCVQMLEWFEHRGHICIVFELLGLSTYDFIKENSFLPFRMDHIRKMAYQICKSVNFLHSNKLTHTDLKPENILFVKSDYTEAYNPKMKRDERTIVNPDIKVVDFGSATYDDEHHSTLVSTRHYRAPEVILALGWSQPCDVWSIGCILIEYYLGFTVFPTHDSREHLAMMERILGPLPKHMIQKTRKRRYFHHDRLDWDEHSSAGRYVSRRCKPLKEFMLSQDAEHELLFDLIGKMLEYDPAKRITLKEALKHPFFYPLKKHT

[7] = species on record: Sus scrofa; test: Inhibition of pig CK1delta/epsilon
[8] = target: T1, Serine/threonine-protein kinase haspin (Homo sapiens) (UniProt Q8TF76); test: Inhibition of human HASPIN
T1 sequence (whole entry): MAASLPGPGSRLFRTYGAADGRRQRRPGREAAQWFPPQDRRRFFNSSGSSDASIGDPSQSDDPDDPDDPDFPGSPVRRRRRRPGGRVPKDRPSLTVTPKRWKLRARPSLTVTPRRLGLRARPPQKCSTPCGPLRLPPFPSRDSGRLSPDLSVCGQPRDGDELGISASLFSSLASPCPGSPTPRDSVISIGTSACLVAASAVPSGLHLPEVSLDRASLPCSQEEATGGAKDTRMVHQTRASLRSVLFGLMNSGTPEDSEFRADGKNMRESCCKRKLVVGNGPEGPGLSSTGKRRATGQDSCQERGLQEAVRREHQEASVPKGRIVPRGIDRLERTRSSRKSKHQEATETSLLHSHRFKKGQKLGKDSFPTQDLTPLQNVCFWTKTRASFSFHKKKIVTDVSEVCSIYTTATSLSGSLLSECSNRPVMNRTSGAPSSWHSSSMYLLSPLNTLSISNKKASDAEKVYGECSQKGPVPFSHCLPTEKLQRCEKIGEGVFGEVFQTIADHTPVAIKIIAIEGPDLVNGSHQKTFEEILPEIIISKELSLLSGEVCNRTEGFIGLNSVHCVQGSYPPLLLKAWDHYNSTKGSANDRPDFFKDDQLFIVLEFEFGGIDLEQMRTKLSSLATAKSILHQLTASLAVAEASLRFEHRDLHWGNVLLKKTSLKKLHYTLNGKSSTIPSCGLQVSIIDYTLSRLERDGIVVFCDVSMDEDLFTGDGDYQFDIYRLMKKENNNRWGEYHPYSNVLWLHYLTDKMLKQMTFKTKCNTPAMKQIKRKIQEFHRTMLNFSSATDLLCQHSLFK

[9] = target: Platelet-derived growth factor receptor beta (Homo sapiens) (UniProt P09619); test: Inhibition of recombinant human GST-tagged PDGFR-beta (557-end residues) transphosphorylation activity expressed in baculovirus infected Sf9 cells using poly[Glu:Tyr] (4:1) as substrate after 60 mins
Platelet-derived growth factor receptor beta (Homo sapiens), sequence (P09619 whole entry): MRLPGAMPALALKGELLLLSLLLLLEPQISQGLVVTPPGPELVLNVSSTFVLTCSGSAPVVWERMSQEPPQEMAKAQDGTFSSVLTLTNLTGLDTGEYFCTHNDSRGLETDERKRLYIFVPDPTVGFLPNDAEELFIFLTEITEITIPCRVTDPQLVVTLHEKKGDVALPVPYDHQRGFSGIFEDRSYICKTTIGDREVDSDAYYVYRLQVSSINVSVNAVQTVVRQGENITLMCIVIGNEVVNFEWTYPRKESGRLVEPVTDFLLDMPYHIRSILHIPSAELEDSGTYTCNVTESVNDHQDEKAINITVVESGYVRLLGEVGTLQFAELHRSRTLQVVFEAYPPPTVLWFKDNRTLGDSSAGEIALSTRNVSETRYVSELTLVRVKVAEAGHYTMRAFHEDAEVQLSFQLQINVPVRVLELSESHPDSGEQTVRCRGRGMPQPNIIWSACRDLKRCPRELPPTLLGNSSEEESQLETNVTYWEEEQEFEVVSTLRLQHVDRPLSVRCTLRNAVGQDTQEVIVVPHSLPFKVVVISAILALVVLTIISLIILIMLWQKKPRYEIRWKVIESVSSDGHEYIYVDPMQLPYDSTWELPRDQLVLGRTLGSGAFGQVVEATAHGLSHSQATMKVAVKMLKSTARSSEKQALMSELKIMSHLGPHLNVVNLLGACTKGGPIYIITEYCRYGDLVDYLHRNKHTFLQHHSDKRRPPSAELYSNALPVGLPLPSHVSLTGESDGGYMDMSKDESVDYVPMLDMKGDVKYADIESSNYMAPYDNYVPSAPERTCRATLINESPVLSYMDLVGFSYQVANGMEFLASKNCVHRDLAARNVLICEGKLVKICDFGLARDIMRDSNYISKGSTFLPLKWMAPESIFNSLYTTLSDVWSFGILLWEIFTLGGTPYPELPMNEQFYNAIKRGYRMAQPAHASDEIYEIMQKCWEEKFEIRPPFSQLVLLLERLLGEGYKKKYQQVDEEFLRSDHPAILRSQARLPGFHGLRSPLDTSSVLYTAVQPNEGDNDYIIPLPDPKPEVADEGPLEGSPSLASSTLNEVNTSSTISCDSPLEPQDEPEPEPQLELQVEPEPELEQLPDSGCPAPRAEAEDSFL

[10] = target: Mast/stem cell growth factor receptor Kit (Homo sapiens) (UniProt P10721); test: Inhibition of recombinant human GST-tagged KIT (544-end residues) transphosphorylation activity expressed in baculovirus infected Sf9 cells using poly[Glu:Tyr] (4:1) as substrate after 60 mins
Mast/stem cell growth factor receptor Kit (Homo sapiens), sequence (P10721 whole entry): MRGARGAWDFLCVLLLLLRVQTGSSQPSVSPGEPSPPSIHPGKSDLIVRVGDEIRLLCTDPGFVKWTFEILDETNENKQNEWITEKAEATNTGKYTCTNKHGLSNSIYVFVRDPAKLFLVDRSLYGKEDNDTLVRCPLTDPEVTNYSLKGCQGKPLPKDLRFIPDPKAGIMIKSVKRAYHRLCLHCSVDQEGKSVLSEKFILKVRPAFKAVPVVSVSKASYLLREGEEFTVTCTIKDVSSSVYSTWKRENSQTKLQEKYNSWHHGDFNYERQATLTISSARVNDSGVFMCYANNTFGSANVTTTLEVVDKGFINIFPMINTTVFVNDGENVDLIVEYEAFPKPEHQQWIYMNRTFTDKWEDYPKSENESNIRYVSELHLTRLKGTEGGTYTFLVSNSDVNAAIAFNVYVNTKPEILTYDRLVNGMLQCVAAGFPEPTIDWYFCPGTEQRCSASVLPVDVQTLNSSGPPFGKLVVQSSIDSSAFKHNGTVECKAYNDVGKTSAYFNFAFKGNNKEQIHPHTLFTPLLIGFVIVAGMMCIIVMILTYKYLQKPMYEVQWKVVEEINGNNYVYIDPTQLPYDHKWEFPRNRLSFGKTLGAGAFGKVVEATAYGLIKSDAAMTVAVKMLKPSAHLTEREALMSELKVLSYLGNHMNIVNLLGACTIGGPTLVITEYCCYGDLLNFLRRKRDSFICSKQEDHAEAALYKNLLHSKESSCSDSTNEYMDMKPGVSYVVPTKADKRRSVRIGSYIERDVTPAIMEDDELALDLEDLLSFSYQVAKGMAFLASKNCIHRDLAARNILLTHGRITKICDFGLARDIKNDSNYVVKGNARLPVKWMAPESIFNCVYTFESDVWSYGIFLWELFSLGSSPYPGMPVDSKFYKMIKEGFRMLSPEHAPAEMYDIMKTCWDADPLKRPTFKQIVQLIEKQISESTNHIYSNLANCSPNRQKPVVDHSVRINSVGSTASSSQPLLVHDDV

[11] = Tmax in NOD/SCID mouse at 0.5 mg/kg, ip administered as single dose by LC-MS/MS method; format: ADME, organism-based; details: in vivo
[12] = test system: Mus musculus; test: Toxicity in NOD/SCID mouse assessed as phenotypic changes at 0.5 mg/kg, po administered as single dose; format: organism-based; details: in vivo
[13] = Cmax in NOD/SCID mouse at 40 mg/kg, ip administered as single dose by LC-MS/MS method; format: ADME, organism-based; design: dose 40 mg/kg, route intraperitoneal; details: in vivo
[14] = AUC (0 to 8 hrs) in NOD/SCID mouse at 10 mg/kg, ip administered as single dose by LC-MS/MS method; format: ADME, organism-based; design: dose 10 mg/kg, time < 8 hr, route intraperitoneal; details: in vivo
[15] = AUC (0 to 24 hrs) in NOD/SCID mouse at 10 mg/kg, ip by LC-MS/MS method; format: ADME, organism-based; design: time < 24 hr, dose 10 mg/kg, route intraperitoneal; details: in vivo
[16] = test system: Mus musculus; test: Toxicity in NOD/SCID mouse assessed as phenotypic changes at 40 mg/kg, ip […]; format: organism-based; details: in vivo
[17] = test system: HCC1954; test: Anti-tumor activity against HER2-amplified human HCC1954 cells xenografted in NOD/SCID mouse assessed as tumor size at 10 mg/kg, ip administered once daily for 18 days measured after 1 hr last dose (reference value: 497 +/- 82 mm3); format: functional
[18] = test system: HCC1954; test: Anti-tumor activity against HER2-amplified human HCC1954 cells xenografted in NOD/SCID mouse assessed as tumor weight at 10 mg/kg, ip administered once daily for 18 days measured after 1 hr last dose (reference value: 0.8 +/- 0.07 g); format: functional
[19] = test system: Mus musculus; test: In vivo inhibition of ERK1/2 phosphorylation at Thr202/Tyr204 residue in NOD/SCID mouse tumor xenografted with HER2-amplified human HCC1954 cells at 10 mg/kg, ip administered once daily for 18 days measured after 1 hr last dose; format: functional, organism-based
[20] = test system: Mus musculus; test: In vivo inhibition of SRC phosphorylation in NOD/SCID mouse tumor xenografted with HER2-amplified human HCC1954 cells at 10 mg/kg, ip administered once daily for 18 days measured after 1 hr last dose; format: functional, organism-based
[21] = target: Tyrosine-protein kinase BTK (Homo sapiens) (UniProt Q06187); test: Inhibition of human wild type full length BTK (M1 to S659 residues) expressed in mammalian expression system at 10 uM by KinomeScan method relative to control
[22] = target: Focal adhesion kinase 1 (Homo sapiens) (UniProt Q05397); test: Inhibition of human wild type partial length FAK (D402 to R696 residues) expressed in bacterial expression system at 10 uM by KinomeScan method relative to control
Focal adhesion kinase 1 (Homo sapiens), sequence (Q05397 2-1052 limits assumed): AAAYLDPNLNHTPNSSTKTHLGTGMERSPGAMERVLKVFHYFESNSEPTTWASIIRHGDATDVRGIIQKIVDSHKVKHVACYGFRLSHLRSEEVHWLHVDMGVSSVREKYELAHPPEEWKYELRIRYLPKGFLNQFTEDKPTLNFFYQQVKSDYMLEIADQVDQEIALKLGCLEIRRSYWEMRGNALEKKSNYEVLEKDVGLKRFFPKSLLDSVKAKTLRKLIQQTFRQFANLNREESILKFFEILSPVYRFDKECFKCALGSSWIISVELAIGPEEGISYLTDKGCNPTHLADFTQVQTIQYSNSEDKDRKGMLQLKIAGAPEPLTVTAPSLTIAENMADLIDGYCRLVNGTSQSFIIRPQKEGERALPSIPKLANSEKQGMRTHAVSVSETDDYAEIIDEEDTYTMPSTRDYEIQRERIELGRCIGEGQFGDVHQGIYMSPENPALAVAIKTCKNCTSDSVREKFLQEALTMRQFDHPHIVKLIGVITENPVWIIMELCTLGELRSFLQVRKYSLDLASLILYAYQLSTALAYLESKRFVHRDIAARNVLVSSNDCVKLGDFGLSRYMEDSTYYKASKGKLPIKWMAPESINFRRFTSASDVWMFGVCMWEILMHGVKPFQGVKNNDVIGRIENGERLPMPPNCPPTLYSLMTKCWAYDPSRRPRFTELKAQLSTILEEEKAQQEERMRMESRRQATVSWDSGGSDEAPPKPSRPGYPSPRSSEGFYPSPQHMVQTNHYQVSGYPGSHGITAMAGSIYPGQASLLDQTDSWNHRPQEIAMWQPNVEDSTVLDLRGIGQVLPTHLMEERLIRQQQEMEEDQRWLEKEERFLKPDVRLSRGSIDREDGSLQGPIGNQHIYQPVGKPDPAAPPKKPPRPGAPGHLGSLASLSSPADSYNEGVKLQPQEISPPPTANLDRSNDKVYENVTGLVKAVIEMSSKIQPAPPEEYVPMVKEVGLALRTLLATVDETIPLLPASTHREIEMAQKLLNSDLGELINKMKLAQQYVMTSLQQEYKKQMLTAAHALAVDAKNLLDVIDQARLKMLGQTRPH

[23] = target: Insulin-like growth factor 1 receptor (Homo sapiens) (UniProt P08069); test: Inhibition of human wild type partial length IGF1R (L972 to D1294 residues) expressed in bacterial expression system at 10 uM by KinomeScan method relative to control
Insulin-like growth factor 1 receptor (Homo sapiens), sequence (P08069 31-736 limits assumed): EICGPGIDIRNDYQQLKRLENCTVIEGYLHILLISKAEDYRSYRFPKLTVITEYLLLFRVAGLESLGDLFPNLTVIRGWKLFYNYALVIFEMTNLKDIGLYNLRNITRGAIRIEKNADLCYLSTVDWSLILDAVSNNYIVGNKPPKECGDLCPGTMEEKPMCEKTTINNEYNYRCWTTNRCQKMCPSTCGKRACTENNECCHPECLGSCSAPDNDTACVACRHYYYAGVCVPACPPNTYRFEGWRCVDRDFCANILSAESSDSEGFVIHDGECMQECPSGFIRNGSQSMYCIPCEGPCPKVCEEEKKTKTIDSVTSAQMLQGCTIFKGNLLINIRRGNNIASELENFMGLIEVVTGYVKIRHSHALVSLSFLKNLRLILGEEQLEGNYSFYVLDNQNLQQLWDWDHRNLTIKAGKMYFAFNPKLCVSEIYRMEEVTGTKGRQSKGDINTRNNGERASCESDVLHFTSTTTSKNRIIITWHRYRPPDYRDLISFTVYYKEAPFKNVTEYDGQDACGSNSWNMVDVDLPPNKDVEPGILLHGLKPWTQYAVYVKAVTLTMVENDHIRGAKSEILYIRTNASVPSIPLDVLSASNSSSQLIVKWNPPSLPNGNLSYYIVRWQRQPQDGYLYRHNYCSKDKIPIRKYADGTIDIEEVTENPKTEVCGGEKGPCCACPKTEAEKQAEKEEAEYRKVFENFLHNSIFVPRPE
Insulin-like growth factor 1 receptor (Homo sapiens), sequence (P08069 741-1367 limits assumed): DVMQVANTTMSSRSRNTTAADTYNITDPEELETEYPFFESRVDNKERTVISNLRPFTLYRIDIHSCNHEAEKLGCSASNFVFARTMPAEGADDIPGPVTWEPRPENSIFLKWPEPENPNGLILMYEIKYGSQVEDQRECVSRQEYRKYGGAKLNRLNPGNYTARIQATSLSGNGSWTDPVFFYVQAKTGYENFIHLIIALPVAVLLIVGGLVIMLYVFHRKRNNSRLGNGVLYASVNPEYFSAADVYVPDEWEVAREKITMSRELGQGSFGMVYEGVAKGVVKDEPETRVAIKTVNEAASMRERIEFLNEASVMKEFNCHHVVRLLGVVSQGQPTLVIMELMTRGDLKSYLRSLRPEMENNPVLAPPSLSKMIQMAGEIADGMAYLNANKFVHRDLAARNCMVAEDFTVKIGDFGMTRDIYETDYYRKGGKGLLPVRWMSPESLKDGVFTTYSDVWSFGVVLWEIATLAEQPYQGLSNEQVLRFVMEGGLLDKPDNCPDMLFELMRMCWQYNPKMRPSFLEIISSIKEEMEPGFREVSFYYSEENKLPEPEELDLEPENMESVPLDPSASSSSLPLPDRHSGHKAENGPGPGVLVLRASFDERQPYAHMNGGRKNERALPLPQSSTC

[24] = target: Tyrosine-protein kinase ITK/TSK (Homo sapiens) (UniProt Q08881); test: Inhibition of human wild type partial length ITK (R335 to L620 residues) expressed in bacterial expression system at 10 uM by KinomeScan method relative to control
[25] = target: Serine/threonine-protein kinase 4 (Homo sapiens) (UniProt Q13043); test: Inhibition of human wild type full length MST1 (M1 to F487 residues) expressed in bacterial expression system at 10 uM by KinomeScan method relative to control
[26] = target: Phosphatidylinositol 4,5-bisphosphate 3-kinase catalytic subunit alpha isoform (Homo sapiens, UniProt P42336); test: Inhibition of human wild type partial length PIK3CA (R108 to N1068 residues) expressed in mammalian expression system at 10 uM by KinomeScan method relative to control
[27] = target: Tyrosine-protein kinase SYK (Homo sapiens) (UniProt P43405); test: Inhibition of human wild type partial length SYK (D354 to N635 residues) expressed in bacterial expression system at 10 uM by KinomeScan method relative to control

Cc1nc2nc(Sc3ccccc3)cnc2cc1NC(=O)Nc1ccccc1
Activity [1]: >50%
Activity [2]: >50%
Activity [3]: >50%
Activity [4]: >50%
IC50 [5]: 5.7 µM
inhibition [6]: inactive
inhibition [7]: inactive
inhibition [8]: inactive
inhibition [9]: inactive
inhibition [10]: inactive
Tmax [11]: 30 min
Activity [12]: Non-Toxic
Cmax [13]: 18.7 µM
AUC(0-t) at 8 h [14]: 19.9 µM·h
AUC(0-t) at 24 h [15]: 39.1 µM·h
Activity [16]: Toxic
Activity [17]: 150 mm3
Activity [18]: 0.2 g
inhibition [19]: Active
inhibition [20]: Active
inhibition [21]: 10%
inhibition [22]: 0%
inhibition [23]: 6%
inhibition [24]: 5%
inhibition [25]: 0%
inhibition [26]: 0%
inhibition [27]: 10%
